Each structure is given as a SMILES string.

This is an account of results in patent US5688798A, “Pyrimidine compounds” (Hoffmann-La Roche Inc., priority 1995, dated 1997).

For one assay, the target named is T1, dopamine D4 receptor (Homo sapiens, UniProt P21917).
T1 construct: expressed in transfected cells; host or cells: CHO (Chinese Hamster Ovary) cells, D4-CHO, crude membranes
T1 sequence (P21917 1-419): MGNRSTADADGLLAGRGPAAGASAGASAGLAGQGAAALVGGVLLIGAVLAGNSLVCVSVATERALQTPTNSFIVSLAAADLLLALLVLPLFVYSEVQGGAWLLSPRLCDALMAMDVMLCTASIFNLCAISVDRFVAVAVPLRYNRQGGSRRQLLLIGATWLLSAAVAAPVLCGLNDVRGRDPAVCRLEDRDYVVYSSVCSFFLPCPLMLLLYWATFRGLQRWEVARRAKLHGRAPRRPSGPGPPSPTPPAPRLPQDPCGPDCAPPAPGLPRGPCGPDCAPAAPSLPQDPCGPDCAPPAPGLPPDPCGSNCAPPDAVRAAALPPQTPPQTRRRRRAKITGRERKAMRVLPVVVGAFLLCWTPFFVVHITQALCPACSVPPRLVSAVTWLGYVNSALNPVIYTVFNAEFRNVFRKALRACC
The experiment in a line: binding behaviour at the dopamine D4 receptor, [3H]-spiperone displacement in D4-CHO cell membranes.
Conditions: not given
As for the experimental part: The compounds were characterized by their binding behaviour at the D4 receptor.
CHO cells (Chinese Hamster Ovary) were used in the test. Crude membranes were isolated by ultracentrifugation from D4 -CHO and D2 -CHO cells and were stored at -80° C. After thawing and homogenizing in a buffer solution (50 mM Tris, 1 mM EDTA, 5 mM KCl, 1.5 mM CaCl2, 4 mM MgCl2, pH 7.4) they were incubated at room temperature for 90 minutes with 200 pM [3H]-spiperone and an increasing concentration (1×10^-11 M to 1×10^-4 M) of the test compound. A non-specific binding was established by incubating in the presence of 1×10^-5 M (+)-butaclamol. The unbound radioligand was removed by filtration through a GF/C glass filter and the bound radioactivity was determined by scintillation in a Packard TopCount.
It was determined using :^3 H-spiperone. The calculation of the value was effected with ligand.
For orientation: Ki means a dissociation constant, usually derived from enzyme kinetics or from competition with a known ligand. With `Cc1ncc(CN2CC=C(c3ccccc3)CC2)c(N)n1` [Example 14, 5-(4-Phenyl-3,6-dihydro-2H-pyridin-1-ylmethyl)-2-methyl-pyrimidin-4-ylamine], the Ki came out at 8.3 nM.
For the molecule `Cc1ncc(CN2CC=C(c3ccc(F)cc3)CC2)c(N)n1` [Example 15, 5-[4-(4-Fluoro-phenyl)-3,6-dihydro-2H-pyridin-1-ylmethyl]-2-methyl-pyrimidin-4-ylamine], the Ki is 9.3 nM.
On the same count and under the same terms, then `Cc1ncc(CN2CC=C(c3ccc(Cl)cc3)CC2)c(N)n1` [Example 16, 5-[4-(4-chloro-phenyl)-3,6-dihydro-2H-pyridin-1-ylmethyl]-2-methyl-pyrimidin-4-ylamine], with 4.7 nM; and `COc1ccc(C2=CCN(Cc3cnc(C)nc3N)CC2)cc1` [Example 17, 5-[4-(4-Methoxy-phenyl)-3,6-dihydro-2H-pyridin-1-ylmethyl]-2-methyl-pyrimidin-4-ylamine], with 5.4 nM.
`Cc1ncc(CN2CCC3=C(CCCC3)C2)c(N)n1` [Example 24, 5-(3,4,5,6,7,8-Hexahydro-1H-isoquinolin-2-ylmethyl)-2-methyl-pyrimidin-4-ylamine] returned a Ki of 7.8 nM.
Still for that read-out and setting: then `Nc1ncc(CN2CC=C(c3ccccc3)CC2)c(N)n1` [Example 42, 5-(4-Phenyl-3,6-dihydro-2H-pyridin-1-ylmethyl)-pyrimidine-2,4-diamine], with 14 nM.

The assay is the same for the next values; noted with them: [3H]-spiperone 200 pM; crude membranes of D4-CHO cells; room temperature, 90 minutes, pH 7.4; non-specific binding with 1×10^-5 M (+)-butaclamol; read-out: Affinity to dopamine D4 receptors, Ki.
Consider `Cc1ncc(CN2CCN(c3ccc(Cl)cc3)CC2)c(N)n1` [Example 3, 5-[4-(4-Chloro-phenyl)-piperazin-1-ylmethyl]-2-methyl-pyrimidin-4-ylamine], for which the Ki is 33 nM.
Same read-out and setting: then `Cc1ncc(CN2CCN(c3cccc(Cl)c3)CC2)c(N)n1` [Example 7, 5-[4-(3-chloro-phenyl)-piperazin-1-ylmethyl]-2-methyl-pyrimidin-4-ylamine], with 28 nM; and `Cc1ncc(CN2CCc3cc(-c4ccccc4)ccc3C2)c(N)n1` [Example 19, 2-Methyl-5-(6-phenyl-3,4-dihydro-1H-isoquinolin-2-ylmethyl)-pyrimidin-4-ylamine], with 0.4 nM; and `Cc1ncc(CN2CCc3ccc(-c4ccccc4)cc3C2)c(N)n1` [Example 21, 2-Methyl-5-(7-phenyl-3,4-dihydro-1H-isoquinolin-2-ylmethyl)-pyrimidin-4-ylamine], with 6.2 nM.
On to `Cc1ncc(CN2CCc3ccc(OCc4ccccc4)cc3C2)c(N)n1` [Example 22, 5-(7-benzyloxy-3,4-dihydro-1H-isoquinolin-2-ylmethyl)-2-methyl-pyrimidin-4-ylamine], for which the Ki is 23 nM.
The same measure, in the same setting: then `Cc1ncc(CN2CC=C(CCc3ccccc3)CC2)c(N)n1` [Example 28, 2-Methyl-5-(4-phenethyl-3,6-dihydro-2H-pyridin-1-ylmethyl)-pyrimidin-4-ylamine], with 1.3 nM; and `Cc1ncc(CN2CC=C(/C=C/c3ccccc3)CC2)c(N)n1` [Example 29, (E)-2-Methyl-5-(4-styryl-3,6-dihydro-2H-pyridin-1-ylmethyl)-pyrimidin-4-ylamine], with 0.9 nM.
Regarding `CCCc1ncc(CN2CCN(c3ccccc3OC)CC2)c(N)n1` [Example 33, 5-[4-(2-Methoxy-phenyl)-piperazin-1-ylmethyl]-2-propyl-pyrimidin-4-ylamine], the Ki turned out to be 14 nM.
Still for that read-out and setting: then `COc1ccccc1N1CCN(Cc2cnc(N)nc2N)CC1` [Example 41, 5-[4-(2-Methoxy-phenyl)-piperazin-1-ylmethyl]-pyrimidine-2,4-diamine], with 30 nM.
